Molecules are shown by their SMILES.

One test addresses FAK (Homo sapiens (Human), UniProt Q05397). Nature of the test: Biochemical assay for FAK activity (LANCE TR-FRET, ULight-poly Glu,Ala,Tyr substrate). Particulars: GST-tagged FAK, 120 min reaction. On the procedure: (§1) Biochemical Assay for FAK/Pyk2 Activity
(§2) GST-tagged FAK was purchased from Invitrogen (PV3832). GST-tagged PYK2 was purchased from Invitrogen (PV4567). The activity of FAK/PYK2 was measured by monitoring the phosphorylation of a fluorophore labeled ULight-poly Glu, Ala, Tyr (1:1:1) peptide substrate from Perkin Elmer (TRF0101) in the presence of ATP. The phosphorylated tyrosine residue was recognized by a LANCE Europium chelate labeled anti-phosphotyrosine (PY20) antibody from Perkin Elmer (AD0066). This brought the fluorophore and europium chelate in close proximity ([…]) that upon excitation at 320 nm by an Envision (PerkinElmer), energy can be transferred from the donor Europium chelate to the acceptor fluorophore. […] The strength of the signal was, therefore, directly proportional to the FAK/PYK2 activity.
(§3) To measure inhibitory activity of FAK/PYK2 inhibitors, compounds were first prepare as a 1 mM stock in 100% DMSO and 3-fold serial dilution was performed in a 96-well plate (Corning, 3897) to generate 12 different concentration of 100× stock. A 5 μl of 100× stock of each concentration was added to wells containing 95 μl of 1× reaction buffer (40 mM Tris, pH7.5, […], 1 mM DTT and 1 mM CHAPS) to generate 5× stock. Then 2 μl of 5× stock of each concentration was added to a 384 wells-OptiPlate (PerkinElmer, 6007299).
For FAK, 4 μl of 2.5 nM FAK, 1 ul of 8 μg/μl BSA and 1.5 μl of 666 nM ULight-poly Glu, Ala, Tyr (1:1:1) peptide substrate, prepared in above reaction buffer, were added to each well. The reaction was initiated by adding 1.5 μl of 33.3 μM ATP. The reaction was allowed to proceed for 120 min before being quenched with 5 μl of 40 mM EDTA stop buffer prepared in 1×LANCE detection buffer (PerkinElmer, CR97-100).
(§4) Upon quenching of the reaction, 5 μl of 8 nM anti-phosphotyrosine antibody was added to each well and incubated for 60 minutes. The plate was measured using an Envision (PerkinElmer) based on the theory mentioned above.
(TR-FRET usually uses a lanthanide donor and a delayed reading to cut background.)

Another test deals with PYK2 (Homo sapiens (Human), UniProt Q14289). Nature of the test: Biochemical assay for PYK2 activity (LANCE TR-FRET, ULight-poly Glu,Ala,Tyr substrate). Particulars: GST-tagged PYK2, 40 min reaction. On the procedure:
as §1, §2, §3
For PYK2, 5 μl of 2 nM PYK2 and 1.5 μl of 666 nM ULight-poly Glu, Ala, Tyr (1:1:1) peptide substrate, prepared in above reaction buffer, were added to each well. The reaction was initiated by adding 1.5 μl of 46.6 μM ATP. The reaction was allowed to proceed for 40 min before being quenched with 5 μl of 40 mM EDTA stop buffer prepared in 1×LANCE detection buffer (PerkinElmer, CR97-100).
as §4

Sequence of PYK2 (Q14289 whole entry): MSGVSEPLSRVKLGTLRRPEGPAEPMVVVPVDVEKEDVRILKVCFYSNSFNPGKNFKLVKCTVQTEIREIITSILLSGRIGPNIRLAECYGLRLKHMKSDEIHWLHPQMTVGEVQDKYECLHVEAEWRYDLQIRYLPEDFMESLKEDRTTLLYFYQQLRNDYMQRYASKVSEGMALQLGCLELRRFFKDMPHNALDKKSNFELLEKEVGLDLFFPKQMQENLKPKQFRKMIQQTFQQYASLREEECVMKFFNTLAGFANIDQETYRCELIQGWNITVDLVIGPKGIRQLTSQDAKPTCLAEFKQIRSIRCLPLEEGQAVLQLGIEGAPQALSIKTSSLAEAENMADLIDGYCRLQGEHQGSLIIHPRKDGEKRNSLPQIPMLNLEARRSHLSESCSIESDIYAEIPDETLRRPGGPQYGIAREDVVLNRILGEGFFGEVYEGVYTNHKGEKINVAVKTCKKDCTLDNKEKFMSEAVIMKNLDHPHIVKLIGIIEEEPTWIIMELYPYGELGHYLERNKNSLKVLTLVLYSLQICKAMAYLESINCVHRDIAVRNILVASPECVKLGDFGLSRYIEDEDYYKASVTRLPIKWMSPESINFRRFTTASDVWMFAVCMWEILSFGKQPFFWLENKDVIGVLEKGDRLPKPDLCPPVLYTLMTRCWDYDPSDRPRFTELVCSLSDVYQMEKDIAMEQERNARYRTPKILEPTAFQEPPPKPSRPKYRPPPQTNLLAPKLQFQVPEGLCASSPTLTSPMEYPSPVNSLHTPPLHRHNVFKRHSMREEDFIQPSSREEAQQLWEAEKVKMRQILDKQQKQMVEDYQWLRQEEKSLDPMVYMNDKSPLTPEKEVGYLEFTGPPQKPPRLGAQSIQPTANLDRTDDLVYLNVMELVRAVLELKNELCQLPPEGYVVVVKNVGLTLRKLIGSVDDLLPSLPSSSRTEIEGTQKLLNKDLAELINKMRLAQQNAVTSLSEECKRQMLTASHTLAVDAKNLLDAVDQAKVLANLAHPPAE
Sequence of FAK (Q05397 whole entry): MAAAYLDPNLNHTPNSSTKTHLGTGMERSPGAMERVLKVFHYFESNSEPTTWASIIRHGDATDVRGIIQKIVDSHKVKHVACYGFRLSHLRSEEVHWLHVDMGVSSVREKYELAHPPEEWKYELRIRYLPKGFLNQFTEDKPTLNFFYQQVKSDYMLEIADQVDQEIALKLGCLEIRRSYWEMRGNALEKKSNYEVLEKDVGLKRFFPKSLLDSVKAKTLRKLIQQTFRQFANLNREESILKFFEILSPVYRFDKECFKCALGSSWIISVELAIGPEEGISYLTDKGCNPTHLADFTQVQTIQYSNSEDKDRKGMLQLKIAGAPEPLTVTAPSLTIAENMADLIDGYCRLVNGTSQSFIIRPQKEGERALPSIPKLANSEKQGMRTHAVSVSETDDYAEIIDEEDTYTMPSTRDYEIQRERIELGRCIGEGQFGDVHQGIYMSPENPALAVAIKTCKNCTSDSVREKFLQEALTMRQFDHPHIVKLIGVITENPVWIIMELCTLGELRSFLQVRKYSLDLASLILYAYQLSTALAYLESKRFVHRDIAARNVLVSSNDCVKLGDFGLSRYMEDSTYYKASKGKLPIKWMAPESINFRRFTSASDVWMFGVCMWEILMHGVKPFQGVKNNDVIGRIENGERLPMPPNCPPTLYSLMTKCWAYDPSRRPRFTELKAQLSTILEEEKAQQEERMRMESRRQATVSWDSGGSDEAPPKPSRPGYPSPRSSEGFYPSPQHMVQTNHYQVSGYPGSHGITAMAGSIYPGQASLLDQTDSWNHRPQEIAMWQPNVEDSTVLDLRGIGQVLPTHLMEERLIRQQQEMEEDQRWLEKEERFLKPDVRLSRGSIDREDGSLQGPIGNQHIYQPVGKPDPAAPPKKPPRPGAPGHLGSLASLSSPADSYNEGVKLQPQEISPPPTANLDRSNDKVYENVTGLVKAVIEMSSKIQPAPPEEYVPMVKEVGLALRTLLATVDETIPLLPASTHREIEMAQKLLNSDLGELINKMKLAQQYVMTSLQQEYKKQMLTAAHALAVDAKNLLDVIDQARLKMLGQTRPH

Turning to `COc1cc(N2CCCC(O)C2)ccc1Nc1nc2c(c(Nc3ccccc3S(=O)(=O)NC(C)C)n1)CCN2` (centres unmarked) [Example 81, 2-(2-(4-(3-hydroxypiperidin-1-yl)-2-methoxyphenylamino)-6,7-dihydro-5H-pyrrolo[2,3-d]pyrimidin-4-ylamino)-N-isopropylbenzenesulfonamide], the IC50 – broadly, the point on the concentration scale where inhibition reaches its midpoint – on FAK is less than 20 nM; on PYK2 it was less than 50 nM.
On the same counts, the results for `CNC(=O)c1ccccc1Nc1nc(Nc2cc(OC)c(OC)c(OC)c2)nc2c1CCN2` [Example 21, N-methyl-2-(2-(3,4,5-trimethoxyphenylamino)-6,7-dihydro-5H-pyrrolo[2,3-d]pyrimidin-4-ylamino)benzamide] are less than 1000 nM and less than 300 nM.
On the same counts, the results for `CNC(=O)c1ccccc1Nc1nc(Nc2ccc(N3CCOCC3)cc2)nc2c1CCN2` [Example 158, N-methyl-2-(2-(4-morpholinophenylamino)-6,7-dihydro-5H-pyrrolo[2,3-d]pyrimidin-4-ylamino)benzamide] are less than 100 nM and less than 100 nM.
As for `COc1cc(N2CCC(N3CCCC3)CC2)ccc1Nc1nc2c(c(Nc3ccccc3S(=O)(=O)NC(C)C)n1)CCN2` [Example 93, N-isopropyl-2-(2-(2-methoxy-4-(4-(pyrrolidin-1-yl)piperidin-1-yl)phenylamino)-6,7-dihydro-5H-pyrrolo[2,3-d]pyrimidin-4-ylamino)benzenesulfonamide], the IC50 against FAK and on PYK2 was less than 20 nM throughout.
Consider `CC(C)NS(=O)(=O)c1ccccc1Nc1nc(Nc2ccc(N3CCOCC3)cc2F)nc2c1CCN2` [Example 55, 2-(2-(2-fluoro-4-morpholinophenylamino)-6,7-dihydro-5H-pyrrolo[2,3-d]pyrimidin-4-ylamino)-N-isopropylbenzenesulfonamide], for which the half-maximal inhibitory concentration (IC50) on FAK and against PYK2 was less than 20 nM in each case.
As for `CC(C)NS(=O)(=O)c1ccccc1Nc1nc(Nc2ccc(C(C)O)cc2)nc2c1CCN2` (centres unmarked) [Example 69, 2-(2-(4-(1-hydroxyethyl)phenylamino)-6,7-dihydro-5H-pyrrolo[2,3-d]pyrimidin-4-ylamino)-N-isopropylbenzenesulfonamide], the concentration for half-maximal inhibition (IC50) against FAK and on PYK2 was less than 20 nM throughout.
On to `CNC(=O)c1ccccc1Nc1nc(Nc2ccc(N3CCOCC3)cc2OC)nc2c1[C@@H](C)CN2` [Example 102, (R)-2-(2-(2-methoxy-4-morpholinophenylamino)-5-methyl-6,7-dihydro-5H-pyrrolo[2,3-d]pyrimidin-4-ylamino)-N-methylbenzamide], for which the figures for the IC50 at FAK and against PYK2 were less than 20 nM and less than 50 nM, respectively.
Regarding `CNC(=O)c1ccccc1Nc1nc(Nc2cccc3c2OCCO3)nc2c1C(C)(C)CN2` [Example 128, 2-(2-(2,3-dihydrobenzo[b][1,4]dioxin-5-ylamino)-5,5-dimethyl-6,7-dihydro-5H-pyrrolo[2,3-d]pyrimidin-4-ylamino)-N-methylbenzamide], the IC50 against FAK and against PYK2 was less than 20 nM throughout.
Regarding `COc1cc(N2CCOCC2)ccc1Nc1nc2c(c(Nc3ccccc3S(=O)(=O)NC3CCCCC3)n1)CCN2` [Example 8, N-cyclohexyl-2-(2-(2-methoxy-4-morpholinophenylamino)-6,7-dihydro-5H-pyrrolo[2,3-d]pyrimidin-4-ylamino)benzenesulfonamide], the IC50 on FAK was less than 200 nM; at PYK2 it was less than 500 nM.
In the same order, the values of `CNC(=O)c1ccccc1Nc1nc(Nc2ccc(N3CCOCC3)cc2OC)nc2c1C1(CC1)CN2` [Example 152, 2-(2′-(2-methoxy-4-morpholinophenylamino)-6′,7′-dihydrospiro[cyclopropane-1,5′-pyrrolo[2,3-d]pyrimidine]-4′-ylamino)-N-methylbenzamide] are less than 50 nM and less than 20 nM.
On the same counts, the results for `COc1cc(N2CCOCC2)ccc1Nc1nc(NCc2ccccc2N(C)S(C)(=O)=O)c2c(n1)NCC2C` (racemic) [Example 32, (±)-N-(2-((2-(2-methoxy-4-morpholinophenylamino)-5-methyl-6,7-dihydro-5H-pyrrolo[2,3-d]pyrimidin-4-ylamino)methyl)phenyl)-N-methylmethanesulfonamide] are less than 20 nM and more than 1000 nM.
In the same order, the values of `CC(=O)Nc1ccc(Nc2nc3c(c(Nc4ccccc4S(=O)(=O)NC(C)C)n2)CCN3)cc1` [Example 63, N-(4-(4-(2-(N-isopropylsulfamoyl)phenylamino)-6,7-dihydro-5H-pyrrolo[2,3-d]pyrimidin-2-ylamino)phenyl)acetamide] are less than 20 nM and less than 20 nM.
Take `COc1cc(N2CCOCC2)ccc1Nc1nc2c(c(Nc3ccccc3S(=O)(=O)C(C)C)n1)CCN2` [Example 100, N^4-(2-(isopropylsulfonyl)phenyl)-N^2-(2-methoxy-4-morpholinophenyl)-6,7-dihydro-5H-pyrrolo[2,3-d]pyrimidine-2,4-diamine]: the IC50 was less than 20 nM against FAK and less than 50 nM at PYK2.
As to `CCCCNS(=O)(=O)c1ccccc1Nc1nc(Nc2ccc(N3CCOCC3)cc2OC)nc2c1CCN2` [Example 39, N-butyl-2-(2-(2-methoxy-4-morpholinophenylamino)-6,7-dihydro-5H-pyrrolo[2,3-d]pyrimidin-4-ylamino)benzenesulfonamide], the figures for the IC50 against FAK and at PYK2 were less than 50 nM and less than 100 nM, respectively.
For the compound `CC(C)NS(=O)(=O)c1ccccc1Nc1nc(Nc2ccc(CO)cc2)nc2c1CCN2` [Example 54, 2-(2-(4-(hydroxymethyl)phenylamino)-6,7-dihydro-5H-pyrrolo[2,3-d]pyrimidin-4-ylamino)-N-isopropylbenzenesulfonamide], the IC50 at FAK and against PYK2 was less than 20 nM in each case.
As to `COc1cc(N2CCOCC2)ccc1Nc1nc2c(c(Nc3ccc(F)c(F)c3)n1)C(C)(C)CN2` [Example 125, N^4-(3,4-difluorophenyl)-N^2-(2-methoxy-4-morpholinophenyl)-5,5-dimethyl-6,7-dihydro-5H-pyrrolo[2,3-d]pyrimidine-2,4-diamine], the IC50 at FAK is less than 1000 nM; against PYK2, more than 1000 nM.
Regarding `CNC(=O)c1cccc(Nc2nc3c(c(Nc4ccccc4S(=O)(=O)NC(C)C)n2)CCN3)c1` [Example 74, 3-(4-(2-(N-isopropylsulfamoyl)phenylamino)-6,7-dihydro-5H-pyrrolo[2,3-d]pyrimidin-2-ylamino)-N-methylbenzamide], the values for the IC50 at FAK and against PYK2 were less than 20 nM and less than 50 nM, respectively.
On the same counts, the results for `COc1cc(N2CCOCC2)ccc1Nc1nc2c(c(Nc3ccccc3S(=O)(=O)NCCN(C)C)n1)C(C)(C)CN2` [Example 120, N-(2-(dimethylamino)ethyl)-2-(2-(2-methoxy-4-morpholinophenylamino)-5,5-dimethyl-6,7-dihydro-5H-pyrrolo[2,3-d]pyrimidin-4-ylamino)benzenesulfonamide] are less than 20 nM and less than 50 nM.
In the same order, the values of `COc1cc(N2CCOCC2)ccc1Nc1nc2c(c(Nc3ccccc3S(=O)(=O)NCC(C)C)n1)C(C)(C)CN2` [Example 107, N-isobutyl-2-(2-(2-methoxy-4-morpholinophenylamino)-5,5-dimethyl-6,7-dihydro-5H-pyrrolo[2,3-d]pyrimidin-4-ylamino)benzenesulfonamide] are less than 20 nM and less than 20 nM.
Consider `CC(C)NS(=O)(=O)c1ccccc1Nc1nc(Nc2ccc(N3CCOCC3)cc2C(F)(F)F)nc2c1CCN2` [Example 60, N-isopropyl-2-(2-(4-morpholino-2-(trifluoromethyl)phenylamino)-6,7-dihydro-5H-pyrrolo[2,3-d]pyrimidin-4-ylamino)benzenesulfonamide], for which the IC50 is less than 500 nM on FAK and more than 1000 nM against PYK2.
For the compound `CNC(=O)c1ccccc1Nc1nc(Nc2ccccc2OC)nc2c1CCN2` [Example 159, 2-(2-(2-methoxyphenylamino)-6,7-dihydro-5H-pyrrolo[2,3-d]pyrimidin-4-ylamino)-N-methylbenzamide], the IC50 at FAK and against PYK2 was less than 200 nM each time.
For the compound `CNC(=O)c1ccccc1Nc1nc(Nc2ccc(N3CCOCC3)cc2OC)nc2c1C(C)(C)CN2` [Example 37, 2-(2-(2-methoxy-4-morpholinophenylamino)-5,5-dimethyl-6,7-dihydro-5H-pyrrolo[2,3-d]pyrimidin-4-ylamino)-N-methylbenzamide], the IC50 on FAK and on PYK2 was less than 20 nM throughout.

(Values after patent US9428508B2, “2,4-diamino-6,7-dihydro-5H-pyrrolo[2,3]pyrimidine derivatives as FAK/Pyk2 inhibitors” (Centaurus BioPharma Co., Ltd., priority 2011, dated 2016).)
